Data set [1] has as its system A549 cell line. Briefly: MTT assay, inhibition of A549 tumor cell proliferation. The class given is cell-based, Human. To be noted: 48 h treatment, read-out: ID50 (µM) A549. How it is done:
Human A549 cell line and C6 rat glioma cell line were maintained in Dulbecco's modified Eagle's medium (DMEM) complete medium (Sigma-Aldrich, St. Louis, MO), supplemented with fetal bovine serum (FBS, 10%; GLinus, Madrid, Spain), glutamine (2 mM), penicillin (50 IU/mL), and streptomycin ([…]), at 37 °C in a 5% CO2 humidified atmosphere. Exponentially growing cells were seeded on 96-well plates (Beckton Dickinson, Le Pont de Claix, France), in DMEM complete medium, at a density of 1.5 x 10^4 cells/well for C6 cell and 5 x 10^3 cells/well for A549 cells respectively. The cells were allowed to attach with 5% of CO2 at 37°C for overnight, and then, to serum starve the cells, the medium was replaced by 100 µL of fresh DMEM without FBS and maintained overnight. Stock solutions in EtOH of the glycoside derivatives of formula (I) of Example 2 (50 mM) or stock solutions in PBS of the micelles of Example 3 were finally dissolved in DMEM complete medium for the treatments. The cells were treated with serial dilutions of glycoside derivatives of formula (I) of Example 2 or micelles of Example 3 for 48 h. For the experiments with micelles of Example 3, some 96-well plates were placed over a MagnetoFACTOR-96 device (Chemicell) to produce a strong magnetic field to each well and increase the proximity of the nanoparticles to the cells. Also, iron oxide nanoparticles coated with azelaic acid were tested (Azelaic-NP, obtained as described in Chemistry - A European Journal, 2008, 14 (30), 9126-9130) Cell proliferation was evaluated with an MTT assay (Sigma-Aldrich), based on the conversion of the water-soluble MTT into an insoluble formazan. Briefly, after 48 h of compound treatment, the medium was replaced by 100 µL of fresh DMEM without phenol red containing MTT (5 mg/mL) solution, and cells were incubated for additional 3 h at 37 °C with 5% CO2. After this time, the medium was removed, the precipitated formazan was dissolved in 100 µL of DMSO, and the solution optical density was measured at 595 nm in Spectramax Plus equipment (Molecular Devices Corporation). […]

Data set [2] concerns C6 rat glioma cell line. As to the kind of experiment: MTT assay, inhibition of C6 tumor cell proliferation. The note with it: for IC50: free glycoside derivative, 48 h treatment, MTT, read-out: ID50 (µM) C6. The class given is cell-based. How it is done: Human A549 cell line and C6 rat glioma cell line were maintained in Dulbecco's modified Eagle's medium (DMEM) complete medium (Sigma-Aldrich, St. Louis, MO), supplemented with fetal bovine serum (FBS, 10%; GLinus, Madrid, Spain), glutamine (2 mM), penicillin (50 IU/mL), and streptomycin ([…]), at 37 °C in a 5% CO2 humidified atmosphere. Exponentially growing cells were seeded on 96-well plates (Beckton Dickinson, Le Pont de Claix, France), in DMEM complete medium, at a density of 1.5 x 10^4 cells/well for C6 cell and 5 x 10^3 cells/well for A549 cells respectively. The cells were allowed to attach with 5% of CO2 at 37°C for overnight, and then, to serum starve the cells, the medium was replaced by 100 µL of fresh DMEM without FBS and maintained overnight. Stock solutions in EtOH of the glycoside derivatives of formula (I) of Example 2 (50 mM) or stock solutions in PBS of the micelles of Example 3 were finally dissolved in DMEM complete medium for the treatments. The cells were treated with serial dilutions of glycoside derivatives of formula (I) of Example 2 or micelles of Example 3 for 48 h. For the experiments with micelles of Example 3, some 96-well plates were placed over a MagnetoFACTOR-96 device (Chemicell) to produce a strong magnetic field to each well and increase the proximity of the nanoparticles to the cells. Also, iron oxide nanoparticles coated with azelaic acid were tested (Azelaic-NP, obtained as described in Chemistry - A European Journal, 2008, 14 (30), 9126-9130) Cell proliferation was evaluated with an MTT assay (Sigma-Aldrich), based on the conversion of the water-soluble MTT into an insoluble formazan. Briefly, after 48 h of compound treatment, the medium was replaced by 100 µL of fresh DMEM without phenol red containing MTT (5 mg/mL) solution, and cells were incubated for additional 3 h at 37 °C with 5% CO2. After this time, the medium was removed, the precipitated formazan was dissolved in 100 µL of DMSO, and the solution optical density was measured at 595 nm in Spectramax Plus equipment (Molecular Devices Corporation). Absorption values were referred to positive proliferation controls (cells cultured in DMEM complete medium) and negative proliferation controls cells cultured in DMEM without FBS). Inhibition was expressed as an ID50 value, the compound concentration that reduced maximal proliferation by 50%, and the results are shown in Table 3. Table 3. Biological activity of glycoside derivatives of formula (I) and micelles comprising said glycoside derivatives.
A general note: Formazan colour is commonly taken as a measure of viable cells.

Data set [3] in a line: Solubility / stability in water. The note with it: pure water, observed by eye. The class given is physicochemical. An excerpt: For GC-22 and TFA-GC22, the glycosides alone are not soluble in pure water, while the micelles GC-22-NPs and TFA-GC22-NPs are stable in the aqueous phase. Precipitate of GC-22 and TFA-GC22 can be observed by eye straight away in a pure water solution and no re-dispersion is produced when the aqueous micellar solution is mixed with an organic solvent selected from the group consisting of dichloromethane, chloroform, hexane, heptane, toluene, in a volume proportion of 1:1.

Where [4] appears, read: Homo sapiens, A549, free glycoside derivative.

Read-outs that look alike come from different tables or passages of the source. Where only a bound is given, the exact number is not on record here.

Turning to `CCCCCCCC/C=C\CCCCCCCCO[C@H]1O[C@H](CO)[C@@H](O)[C@H](O)[C@H]1NC(=O)C(F)(F)F` [TFAGC22, Oleyl2-deoxy-2-trifluoroacetamido-α-D-glucopyranoside], the IC50 was found to be 8.6 µM in data set [1] (setting [4]) and 14.2 ± 0.3 µM in data set [2] (Rattus norvegicus, Glioma cell). The solubility in water entry in data set [3] is given as “not soluble”.

As for `CCCCCCCC/C=C\CCCCCCCCO[C@H]1O[C@H](CO)[C@@H](O)[C@H](O)[C@H]1NC(C)=O` [GC22, Oleyl 2-acetamido-2-deoxy-α-D-glucopyranoside], the IC50 in data set [1] (setting [4]) was determined as 10 µM; in data set [2] (Rattus norvegicus, Glioma cell), 15.5 ± 0.3 µM. Further, the solubility in water result in data set [3] was “not soluble”.

`CCCCCCCC/C=C\CCCCCCCCO[C@H]1O[C@H](COS(=O)(=O)[O-])[C@@H](O)[C@H](O)[C@H]1NC(C)=O.[K+]` [IG20, Oleyl 2-acetamido-2-deoxy-6-O-(oxosulfonyl)-α-D-glucopyranoside potassium salt]: the results for the IC50 in data set [1] (free glycoside derivative) and in data set [2] were 97 µM and over 100 µM, respectively. For the same molecule, the “inhibition of proliferation of C6 tumor cells” value in data set [2] (result in words) is reported as “did not show inhibition”. For the same molecule, the solubility in water entry in data set [3] is recorded as “soluble in water”.

Values taken from patent EP2921179A1, “Micellar nanoparticles containing antitumoral glycosides” (Fundación Centro Nacional de Investigaciones …, priority 2014, dated 2015).
